Laboratory results published in ChEMBL document CHEMBL1201862, “PubChem BioAssay data set” (2004).
Activity calls are given as the source filed them.

How the values were obtained:
Protein Wnt-3a = Protein Wnt-3a (Mus musculus, UniProt P27467); experiment: Wnt3a-driven reporter signaling inhibition, dose response, selectivity assay for Gli-SUFU antagonist project, Wnt-LIGHT cells, luminescence (AID 651570); assay type: functional; conditions: read-out: IC50_Mean;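 further: Wnt-LIGHT reporter cells stimulated with conditioned medium from Wnt3a-producing cells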
[1] = biological target: COUP transcription factor 2 (Homo sapiens, UniProt P24468); experiment: Luminescence-based cell-based high throughput dose response assay to identify inhibitors of COUP-TFII (NR2F2).; assay type: functional;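 further: HEK293 cells transiently cotransfected with COUP-TFII expression vector and reporter; luciferase reporter luminescence driven by COUP-TFII from the pX2-168 reporter plasmid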
Jurkat = experiment: antigen receptor-induced NF-kB inhibitors, dose response, Jurkat, luciferase reporter, luminescence, B- and T-cell (AID 489004); assay type: functional, cell-based; conditions: Homo sapiens;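 further: NF-kB luciferase reporter Jurkat cells stimulated with PMA plus ionomycin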
[2] = cytotoxicity in HEK-293T NF-kB-Luc cells, dose response, cytotoxicity control for B/T-cell NF-kB inhibitor project, cell-based, uHTS hits (AID 489019); assay type: functional;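 further: IC50 reflects cytotoxicity as loss of cell viability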
INS1 = experiment: beta cell apoptosis inhibitors, cytokine rescue, dose response, luminescence, retest (AID 449756); assay type: functional, cell-based; conditions: Rattus norvegicus;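 further: cell death triggered by IL-1 beta plus TNF-alpha plus IFN-gamma mixture; protective hits raise ATP signal compared with cytokine alone wells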
[3] = Shn3 3'UTR reporter inhibitors, dose response, cell-based, Clone20 osteoblasts, firefly luciferase, cherry-picked (AID 624132); assay type: functional;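 further: firefly luciferase luminescence from reporter carrying the Shn3 3'UTR in osteoblasts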
[4] = HepG2 cell cytotoxicity, dose response, cytotoxicity control for Shn3 inhibitor project, CellTiter-Glo, cherry-picked (AID 624134); assay type: functional, cell-based
[5] = control 3'UTR Renilla luciferase suppression, dose response, counter-screen for Shn3 inhibitor project, cell-based, Clone20-Shn3RL, cherry-picked (AID 624133); assay type: functional
[6] = inhibitors of PGC1a acetylation in cells, dose response, cell-based, cherry-picked samples (AID 720514); assay type: functional;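 further: potency may reflect raised or lowered acetylation signal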
[7] = A549 cell cytotoxicity, dose response, cytotoxicity control, plate reader, cherry-pick, antagonist series (AID 743412); assay type: functional, cell-based
[8] = HepG2 cell cytotoxicity, dose response, cytotoxicity control, plate reader, cherry-pick, antagonist series (AID 743416); assay type: functional, cell-based
[9] = LGR2 antagonists, dose response, cell-based, HEK293, CRE-luciferase reporter, cherry pick, set 2 (AID 743343); assay type: functional;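 further: transfected cells were stimulated with diluted bursicon conditioned medium after compound addition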
[10] = MC4R antagonists, dose response, counter-screen for LGR2 antagonist project, cell-based, plate reader, cherry pick (AID 743444); assay type: functional;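 further: transfected HEK 293 cells stimulated with alpha-MSH peptide; potency of inhibitors of the alpha-MSH evoked signal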
[11] = HEK293 cell cytotoxicity, dose response, cytotoxicity control, plate reader, cherry-picked samples (AID 743446); assay type: functional, cell-based
[12] = growth suppression of PTEN-null colon cells, dose response, cell-based, HCT116 PTEN knockout (AID 1047); assay type: functional;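 further: HCT116 colon tumor cells with PTEN knocked out; cells exposed to compound for 60 hours before readout; potency for loss of cell viability measured by luminescence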
[13] = growth suppression of beta-catenin-knockout colon cells, dose response, cell-based, HCT116, human colon tumor (AID 1045); assay type: functional;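 further: HCT116 colon tumor cells with beta catenin knocked out; cells exposed to compound for 60 hours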
X-box-binding protein 1 = biological target: T1, X-box-binding protein 1 (Homo sapiens, UniProt P17861); assay type: functional, Cricetulus griseus;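 further: confirmatory dose-response counter-screen serving a CHOP assay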
T1 sequence (P17861 whole entry): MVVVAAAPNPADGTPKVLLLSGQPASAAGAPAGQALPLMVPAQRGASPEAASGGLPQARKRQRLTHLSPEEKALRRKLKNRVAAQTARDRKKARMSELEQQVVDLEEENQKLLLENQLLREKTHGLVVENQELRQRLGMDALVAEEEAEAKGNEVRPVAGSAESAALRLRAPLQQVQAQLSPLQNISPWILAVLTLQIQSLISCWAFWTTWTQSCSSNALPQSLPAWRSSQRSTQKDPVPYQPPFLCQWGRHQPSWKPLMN

[14] = Artemis endonuclease inhibitor potency, dose response, biochemical, fluorescence intensity (AID 720701); assay type: functional;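 further: Artemis endonuclease enzyme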
Transthyretin = Transthyretin (Homo sapiens, UniProt P02766); experiment: Luminescence-based cell-based high throughput dose response assay to identify activators of Transthyretin (TTR) transcription.; assay type: functional
[15] = biological target: Heat shock protein HSP 90-alpha (Homo sapiens, UniProt P07900); experiment: Luminescence-based dose response biochemical high throughput screening assay for inhibitors of the Heat Shock Protein 90 (HSP90). [Related pubchem assays: 1831 (Summary AID.), 1846 (Confirmation screen.), 1789 (Primary screen.)]
Kallikrein-7 = Kallikrein-7 (Homo sapiens, UniProt P49862); experiment: Fluorescence Intensity-based biochemical primary high throughput dose response assay to identify activators of kallikrein-7 (K7) zymogen.
[16] = cytotoxicity in L-6 rat myocytes, dose response, cytotoxicity control, cell-based, plate reader, cherry-pick (AID 651896); assay type: functional
[17] = L. donovani amastigote growth inhibition, dose response, axenic amastigotes, plate reader, cherry pick (AID 651891); assay type: functional, cell-based; conditions: Leishmania donovani
[18] = intracellular Trypanosoma cruzi inhibitors in host cells – cell-based, plate reader, cherry-pick samples, set 3, dose response (AID 651818); assay type: functional;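 further: compounds incubated with infected cells for about four days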
[19] = T. b. rhodesiense proliferation inhibition, dose response, STIB900 strain, plate reader, cherry pick (AID 651893); assay type: functional, cell-based; conditions: Trypanosoma brucei
[20] = P. falciparum blood-stage growth inhibition, dose response, NF54 strain, plate reader, dry powder (AID 651889); assay type: functional, cell-based
[21] = L-6 rat myoblast cytotoxicity, dose response, counter-screen for T. cruzi inhibitor project, cell-based, plate reader, dry powder (AID 651895); assay type: functional
[22] = T. cruzi growth inhibition in host cells, dose response, cell-based, plate reader, dry powder, set 2 (AID 652275); assay type: functional
[23] = growth inhibition of intracellular T. cruzi, dose response, cell-based, plate reader, dry powder samples (AID 651845); assay type: functional
[24] = T. cruzi intracellular amastigote growth inhibition, dose response, imaging, CA-I/72 strain, bovine embryo skeletal muscle, dry powder (AID 651885); assay type: functional, cell-based
[25] = L. donovani amastigote growth inhibition, dose response, axenic amastigotes, plate reader, dry powder (AID 651892); assay type: functional, cell-based
[26] = T. cruzi amastigote growth inhibition, dose response, Tulahuen strain, L-6 host cells, dry powder (AID 651890); assay type: functional, cell-based
[27] = T. b. rhodesiense proliferation inhibition, dose response, STIB900 strain, plate reader, dry powder (AID 651894); assay type: functional, cell-based
[28] = HT-29 colorectal cell cytotoxicity over time, dose response, HRas target identification project, CellTiter-Glo, multiple timepoints, dry powder (AID 720598); assay type: functional, cell-based
[29] = SR lymphoma cell viability over time, late-stage follow-up, mechanism study for HRAS target identification, CellTiter-Glo ATP luminescence, 8-48 h, dry powder (AID 720608); assay type: functional, cell-based
[30] = SNB-19 glioblastoma cell viability over time, late-stage follow-up, mechanism study for HRAS target identification, CellTiter-Glo ATP luminescence, 8-48 h, dry powder (AID 720611); assay type: functional, cell-based
[31] = LOX IMVI melanoma cell viability loss, dose response, HRAS target identification, CellTiter-Glo ATP luminescence, 8/24/48 h, dry powder (AID 720602); assay type: functional, cell-based
[32] = C2C12 myoblast ATP-based viability loss, dose response, cytotoxicity control for HRAS target identification, cell-based, CellTiter-Glo ATP luminescence, 8/24/48 h, dry powder (AID 720603); assay type: functional
[33] = SNB-19 glioblastoma cell viability loss, dose response, HRAS target identification, Alamar Blue fluorescence, 8/24/48 h, dry powder (AID 720600); assay type: functional, cell-based
[34] = U-251 glioblastoma cell viability loss, dose response, HRAS target identification, Alamar Blue fluorescence, 8/24/48 h, dry powder (AID 720605); assay type: functional, cell-based
[35] = CCRF-CEM leukemia cell viability loss, dose response, HRAS target identification, CellTiter-Glo ATP luminescence, 8/24/48 h, dry powder (AID 720607); assay type: functional, cell-based
[36] = Late stage assay provider results from the probe development effort to identify inhibitors of the Plasmodium falciparum M18 Aspartyl Aminopeptidase (M18AAP): radiolabel-based cell-based dose response assay to identify compounds that inhibit P. falciparum growth in RBCs, Set 2..; assay type: functional
[37] = biological target: G-protein coupled receptor 183 (Homo sapiens, UniProt P32249); experiment: SAR confirmation of small molecule antagonists of the EBI2 receptor via a luminescent beta-arrestin assa.; assay type: functional
cells [38] = conditions: HEK293
[39] = P. falciparum 3D7-ScDHODH growth inhibitors, dose response, SYBR Green, dry powder samples (AID 1159570); assay type: functional, cell-based;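 further: parasite growth measured after 72 hours of compound exposure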
[40] = P. falciparum Dd2 growth inhibitors, dose response, SYBR Green, dry powder samples, set 9 (AID 1159568); assay type: functional, cell-based
[41] = P. falciparum Dd2 growth inhibitors, dose response, SYBR Green, cherry-picked samples (AID 1159567); assay type: functional, cell-based
[42] = P. falciparum Dd2 growth inhibitors, dose response, SYBR Green, dry powder samples (AID 1159566); assay type: functional, cell-based;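 further: potency for growth inhibition with lower SYBR green DNA signal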
[43] = Plasmodium falciparum Dd2 Sybr green parasite growth Measured in Cell-Based and Microorganism Combination System Using Plate Reader - 2153-01_Inhibitor_Dose_DryPowder_Activity_Set3.; assay type: functional
[44] = P. falciparum ATP4 D1247Y mutant growth inhibitors, dose response, NITD609-resistant line, SYBR Green, dry powder (AID 1159571); assay type: functional, cell-based;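 further: parasites synchronized at ring stage by sorbitol before testing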
[45] = Dose-response inhibition of insulin secretion in a rat insulinoma line at 5 mM glucose (AID 1117331); assay type: functional, cell-based; conditions: INS-1E
cells [46] = assay type: functional, cell-based; conditions: INS-1E

COUP transcription factor 2, sequence (P24468 whole entry): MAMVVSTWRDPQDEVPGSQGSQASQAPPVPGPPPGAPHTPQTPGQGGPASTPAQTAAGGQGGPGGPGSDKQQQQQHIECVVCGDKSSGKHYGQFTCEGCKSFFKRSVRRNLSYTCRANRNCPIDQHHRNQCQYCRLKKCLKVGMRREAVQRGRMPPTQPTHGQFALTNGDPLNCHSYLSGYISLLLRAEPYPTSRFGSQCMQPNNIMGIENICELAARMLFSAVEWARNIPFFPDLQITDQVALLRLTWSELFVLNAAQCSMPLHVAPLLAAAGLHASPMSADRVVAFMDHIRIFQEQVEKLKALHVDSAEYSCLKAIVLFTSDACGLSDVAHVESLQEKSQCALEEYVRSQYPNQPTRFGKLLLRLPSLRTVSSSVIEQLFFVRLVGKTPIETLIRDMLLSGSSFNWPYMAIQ
Kallikrein-7, sequence (P49862 whole entry): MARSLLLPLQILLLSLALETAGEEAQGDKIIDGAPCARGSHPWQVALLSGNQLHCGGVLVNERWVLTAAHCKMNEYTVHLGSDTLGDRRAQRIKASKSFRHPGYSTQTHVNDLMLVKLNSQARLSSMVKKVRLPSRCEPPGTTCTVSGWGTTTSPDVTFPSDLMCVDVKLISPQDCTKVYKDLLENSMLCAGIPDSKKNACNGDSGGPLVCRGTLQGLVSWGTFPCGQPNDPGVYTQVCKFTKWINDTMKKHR
Protein Wnt-3a, sequence (P27467 whole entry): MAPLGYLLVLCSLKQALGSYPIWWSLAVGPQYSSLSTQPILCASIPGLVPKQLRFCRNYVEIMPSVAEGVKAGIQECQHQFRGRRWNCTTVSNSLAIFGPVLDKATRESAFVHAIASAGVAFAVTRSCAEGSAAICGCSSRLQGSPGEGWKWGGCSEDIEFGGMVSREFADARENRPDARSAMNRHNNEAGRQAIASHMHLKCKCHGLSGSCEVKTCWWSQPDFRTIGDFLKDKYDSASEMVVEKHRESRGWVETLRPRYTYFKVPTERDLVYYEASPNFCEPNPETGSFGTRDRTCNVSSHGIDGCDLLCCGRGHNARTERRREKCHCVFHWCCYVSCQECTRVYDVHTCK
G-protein coupled receptor 183, sequence (P32249 whole entry): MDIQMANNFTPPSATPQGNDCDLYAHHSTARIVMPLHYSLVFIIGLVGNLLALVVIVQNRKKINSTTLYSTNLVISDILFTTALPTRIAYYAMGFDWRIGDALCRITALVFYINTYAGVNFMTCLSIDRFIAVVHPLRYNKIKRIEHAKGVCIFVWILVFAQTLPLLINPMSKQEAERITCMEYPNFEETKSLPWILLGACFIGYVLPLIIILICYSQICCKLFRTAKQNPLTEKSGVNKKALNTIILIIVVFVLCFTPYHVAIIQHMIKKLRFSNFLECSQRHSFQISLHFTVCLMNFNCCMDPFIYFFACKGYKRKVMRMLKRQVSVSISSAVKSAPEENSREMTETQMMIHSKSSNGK

Compound: CCC(C)NC(=O)CCC(=O)OC1O[C@H]2OC3(C)CC[C@H]4[C@H](C)CCC(C1C)C24OO3 (some centres not stated)
- IC50 (Protein Wnt-3a): 0.238 µM (active)
- IC50 [1]: 468 µM (inactive)

Compound: C#CC(=O)N(c1cccc(OC)c1)C(C(=O)NC1CCCC1)c1cccs1 (configuration not stated)
- IC50 (Jurkat): 0.25 µM (active)
- IC50 [2]: 28.4 µM (inactive)
- AC50 (INS1): 0.65 µM (active)
- AC50 [3]: 3.8 µM (active)
- AC50 [4]: 3.76 µM (active)
- AC50 [5]: 9.76 µM (active)
- AC50 [6]: 3.82 µM (active)
- AC50 [7]: 8.46 µM (active)
- AC50 [8]: 0.96 µM (active)
- AC50 [9]: 2.53 µM (active)
- AC50 [10]: 2.25 µM (active)
- AC50 [11]: 1.65 µM (active)

Compound: O=C(c1ccc2c3c(cccc13)C(=O)N(O)C2=O)N1CCCCC1
- EC50 [12]: 11 µM (active)
- EC50 [13]: 13.7 µM (active)
- Absolute IC50 (XBP1) (X-box-binding protein 1): 10 µM
- IC50 [14]: 11.5 µM (active)

Compound: CC(Oc1ccccc1)C(=O)N1CCN=C1SCc1ccccc1 (configuration not stated)
- EC50 (Transthyretin): > 167 µM (inactive)

Compound: Cc1nc(NC(=O)/C=C/c2ccccc2)sc1C(=O)Nc1ccccc1Cl
- IC50 [15]: 2.91 µM (active)

Compound: CNc1ccc(-c2cccc(CO)c2)cn1
- EC50 (Kallikrein-7): > 7.72 µM (active)

Compound: C[C@H]1CN([C@@H](C)CO)C(=O)c2cccc(NC(=O)c3ccncc3)c2O[C@@H]1CN(C)Cc1ccc(Oc2ccccc2)cc1
- IC50 [16]: 14.4 µM (active)
- IC50 [17]: 13.2 µM (inactive)
- AC50 [18]: 0.08 µM (active)
- IC50 [19]: 5.78 µM (inactive)
- IC50 [20]: 0.504 µM (inactive)
- IC50 [21]: 17.1 µM (inactive)
- AC50 [22]: 0.00442 µM (active)
- AC50 [23]: 0.000457 µM (active)
- IC50 [24]: 0.00066 µM (active)
- IC50 [25]: 8.4 µM (inactive)
- IC50 [26]: 0.0295 µM (active)
- IC50 [27]: 1.5 µM (inactive)

Compound: C#CCCCC(=O)NCCOCCOCCOc1ccc(N(C(=O)CCl)C(C(=O)NCCc2ccccc2)c2cccs2)cc1Cl (configuration not stated)
- AC50 [28]: 4.9 µM (active)
- AC50 [29]: 1.18 µM (active)
- AC50 [30]: 4.54 µM (active)
- AC50 [31]: 0.993 µM (active)
- AC50 [32]: 16.6 µM (active)
- AC50 [33]: 22.4 µM (active)
- AC50 [34]: 1.25 µM (active)
- AC50 [35]: 1.38 µM (active)

Compound: CN(CCc1ccc(O)c(O)c1)c1ccnc2ccccc12
- IC50 [36]: 4.8 µM (active)

Compound: O=C(CCc1ccc(F)cc1)N1CCN(S(=O)(=O)/C=C/c2ccccc2)CC1
- IC50 [37]: 0.113 µM (active)

Compound: Cc1ccc(C(C)C)c(OCCn2/c(=N/C#N)[nH]c3ccccc32)c1
- AC50 (cells [38]): 34 µM (active)

Compound: CO[C@@H]1CN(C)C(=O)c2ccc(NC(=O)Nc3ccccc3F)cc2OC[C@@H](C)N(Cc2ccccc2F)C[C@H]1C
- AC50 [39]: 0.948 µM (active)
- AC50 [40]: 0.674 µM (active)
- AC50 [41]: 0.356 µM (active)
- AC50 [42]: 0.0449 µM (active)
- AC50 [43]: 0.586 µM (active)
- AC50 [44]: 0.122 µM (active)

Compound: CCOc1cc(CC(=O)N[C@@H](CC(C)C)c2ccccc2N2CCCCC2)ccc1C(=O)O [REPAGLINIDE]
- IC50 [45]: 0.027 µM (active)
- IC50 (cells [46]): 0.136 µM (active)
